What was measured:
[1] = Sucrose self-administration; format: in vivo; conditions: pretreatment (±)-29 15 and 25 mg/kg, (±)-19 1 and 5 mg/kg
human D2R = biological target: T1, human D2R (Homo sapiens, UniProt P14416); assay: Radioligand competition binding, [3H]N-methylspiperone, D2R; conditions: Table 1A; ratio of Ki values
T1 construct: expressed in transfected cells; host or cells: HEK293
Description: Binding at dopamine D2-like receptors was determined using previously described methods. (Chen et al. “Tranylcypromine substituted cis-hydroxycyclobutylnaphthamides as potent and selective dopamine D(3) receptor antagonists.” J. Med. Chem. 2014, 57, 4962-4968) Membranes were prepared from HEK293 cells expressing human D2R, D3R or D4R, grown in a 50:50 mix of DMEM and Ham's F12 culture media, supplemented with 20 mM HEPES, 2 mM L-glutamine, 0.1 mM non-essential amino acids, 1× antibiotic/antimycotic, 10% heat-inactivated fetal bovine serum, and 200 μg/mL hygromycin (Life Technologies, Grand Island, NY) and kept in an incubator at 37° C. and 5% CO2. Upon reaching 80-90% confluence, cells were harvested using pre-mixed Earle's Balanced Salt Solution (EBSS) with 5 μM EDTA (Life Technologies) and centrifuged at 3000 rpm for 10 min at 21° C. The supernatant was removed and the pellet was resuspended in 10 mL hypotonic lysis buffer (5 mM MgCl2·6H2O, 5 mM Tris, pH 7.4 at 4° C.) and centrifuged at 20,000 rpm for 30 min at 4° C. The pellet was then resuspended in fresh EBSS buffer made from 8.7 g/L Earle's Balanced Salts without phenol red (US Biological, Salem, MA), 2.2 g/L sodium bicarbonate, pH to 7.4. A Bradford protein assay (Bio-Rad, Hercules, CA) was used to determine the protein concentration and membranes were diluted to 500 μg/mL and stored in a −80° C. freezer for later use.
(§1) Radioligand competition binding experiments were conducted using thawed membranes. Test compounds were freshly dissolved in 30% DMSO and 70% H2O to a stock concentration of 100 μM. To assist the solubilization of free-base compounds, 10 μl of glacial acetic acid was added along with the DMSO. Each test compound was then diluted into 13 half-log serial dilutions using 30% DMSO vehicle; final test concentrations ranged from 10 μM to 10 pM. Previously frozen membranes were diluted in fresh EBSS to a 100 μg/mL (for hD2R or hD3R) or 200 μg/mL (hD4R) stock for binding. Radioligand competition experiments were conducted in glass tubes containing 300 μl fresh EBSS buffer with 0.2 mM sodium metabisulfite, 50 μl of diluted test compound, 100 μl of membranes (10 μg total protein for hD2R or hD3R, 20 μg total protein for hD4R), and 50 μl of [^3H]N-methylspiperone (0.4 nM final concentration; Perkin Elmer). Nonspecific binding was determined using 10 μM butaclamol (Sigma-Aldrich, St. Louis, MO) and total binding was determined with 30% DMSO vehicle. All compound dilutions were tested in triplicate and the reaction incubated for one hour at room temperature. The reaction was terminated by filtration through Whatman GF/B filters, presoaked for one hour in 0.5% polyethylenimine, using a Brandel R48 filtering manifold (Brandel Instruments, Gaithersburg, MD). The filters were washed 3 times with 3 mL of ice cold EBSS buffer and transferred to scintillation vials. 3 mL CytoScint liquid scintillation cocktail (MP Biomedicals, Solon, OH) was added and vials were counted using a Perkin Elmer Tri-Carb 2910 TR liquid scintillation counter (Waltham, MA). IC50 values for each compound were determined from dose-response curves and Ki values were calculated using the Cheng-Prusoff equation; these analyses were performed using GraphPad Prism version 5.00 for Windows (GraphPad Software, San Diego, CA). Reported Ki values were determined from least three independent experiments.

human D3R = biological target: T2, human D3R (Homo sapiens, UniProt P35462); assay: Radioligand competition binding, [3H]N-methylspiperone, D3R; conditions: Table 1A; for D4/D3: ratio of Ki values; for D3R K ± SEM (nM): HEK 293 cells transfected with hD3R, [3H]N-methylspiperone
T2 construct: expressed in transfected cells; host or cells: HEK293
Description: Binding at dopamine D2-like receptors was determined using previously described methods. […] Upon reaching 80-90% confluence, cells were harvested using pre-mixed Earle's Balanced Salt Solution (EBSS) with 5 μM EDTA (Life Technologies) and centrifuged at 3000 rpm for 10 min at 21° C. The supernatant was removed and the pellet was resuspended in 10 mL hypotonic lysis buffer (5 mM MgCl2·6H2O, 5 mM Tris, pH 7.4 at 4° C.) and centrifuged at 20,000 rpm for 30 min at 4° C. The pellet was then resuspended in fresh EBSS buffer made from 8.7 g/L Earle's Balanced Salts without phenol red (US Biological, Salem, MA), 2.2 g/L sodium bicarbonate, pH to 7.4. A Bradford protein assay (Bio-Rad, Hercules, CA) was used to determine the protein concentration and membranes were diluted to 500 μg/mL and stored in a −80° C. freezer for later use.
as §1, with “3 mL CytoScint liquid scintillation cocktail (MP Biomedicals, Solon, OH) was added and vials were counted using a Perkin Elmer Tri-Carb 2910 TR liquid scintillation counter (Waltham, MA).” left out

human dopamine D3R = biological target: T3, human dopamine D3R (Homo sapiens, UniProt P35462); assay: D3R mitogenesis assay in CHO cells; format: cell-based; conditions: stimulation of mitogenesis, CHO cells with human D3R; read-out: Agonist EC50 ± SEM
T3 construct: expressed in transfected cells; host or cells: CHO
T3 sequence (P35462 whole entry): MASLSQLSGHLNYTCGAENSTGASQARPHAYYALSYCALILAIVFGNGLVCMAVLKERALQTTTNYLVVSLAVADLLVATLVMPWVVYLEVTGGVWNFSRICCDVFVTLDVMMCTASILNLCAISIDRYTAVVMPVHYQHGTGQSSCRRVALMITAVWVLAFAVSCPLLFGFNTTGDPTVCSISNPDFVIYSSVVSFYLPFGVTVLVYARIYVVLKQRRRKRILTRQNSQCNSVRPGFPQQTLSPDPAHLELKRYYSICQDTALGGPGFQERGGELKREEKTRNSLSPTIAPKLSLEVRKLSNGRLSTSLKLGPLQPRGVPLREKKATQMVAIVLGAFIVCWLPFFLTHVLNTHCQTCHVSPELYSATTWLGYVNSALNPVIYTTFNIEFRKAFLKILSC

T1 sequence (P14416 whole entry): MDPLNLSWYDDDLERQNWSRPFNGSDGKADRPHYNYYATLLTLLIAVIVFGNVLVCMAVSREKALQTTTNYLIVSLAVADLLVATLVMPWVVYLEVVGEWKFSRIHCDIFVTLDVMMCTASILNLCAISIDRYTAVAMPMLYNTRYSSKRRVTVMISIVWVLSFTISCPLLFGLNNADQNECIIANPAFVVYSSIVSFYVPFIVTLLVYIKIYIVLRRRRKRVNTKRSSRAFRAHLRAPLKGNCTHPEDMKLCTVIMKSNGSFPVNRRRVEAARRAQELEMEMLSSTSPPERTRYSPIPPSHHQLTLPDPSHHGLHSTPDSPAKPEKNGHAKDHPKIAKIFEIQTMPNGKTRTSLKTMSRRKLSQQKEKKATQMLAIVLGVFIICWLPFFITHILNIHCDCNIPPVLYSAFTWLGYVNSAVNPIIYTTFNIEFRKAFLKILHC
T2 sequence (P35462 whole entry): as the sequence (P35462 whole entry) above

D4/D2 (human D2R) | D4/D3 (human D3R) | D3R K ± SEM (nM) (human D3R) | EC50 (human dopamine D3R) | SMILES | sucrose self-administration [1]
56 | 2327 | subnanomolar binding affinities |  | CCc1cccc(N2CCN(CCCCNC(=O)c3cc4ccccc4o3)CC2)c1Cl [Compound 20, N-(4-(4-(2-Chloro-3-ethylphenyl)piperazin-1-yl)butyl)benzofuran-2-carboxamide] | 
145.2 | 2482 |  |  | CCc1cccc(N2CCN(CCCCNC(=O)c3cn4ccccc4n3)CC2)c1Cl [Compound 22, N-(4-(4-(2-chloro-3-ethylphenyl)piperazin-1-yl)butyl)imidazo[1,2-a]pyridine-2-carboxamide] | 
30.8 | 152 |  |  | CCc1cccc(N2CCN(CCCCNC(=O)c3c(C)nc4sccn34)CC2)c1Cl [Compound 24, N-(4-(4-(2-chloro-3-ethylphenyl)piperazin-1-yl)butyl)-6-methylimidazo[2,1-b]thiazole-5-carboxamide] | 
40.0 | 439 |  |  | CCc1c[nH]c(C(=O)NCCCCN2CCN(c3cccc(CC)c3Cl)CC2)n1 [Compound 25, N-(4-(4-(2-Chloro-3-ethylphenyl)piperazin-1-yl)butyl)-4-ethyl-1H-imidazole-2-carboxamide] | 
43.4 | 853 |  |  | CCc1cccc(N2CCN(CCCCNC(=O)c3nc(C)c[nH]3)CC2)c1Cl [Compound 26, N-(4-(4-(2-Chloro-3-ethylphenyl)piperazin-1-yl)butyl)-4-methyl-1H-imidazole-2-carboxamide] | 

Continued, compound first:

SMILES | D4/D2 (human D2R) | D4/D3 (human D3R) | D3R K ± SEM (nM) (human D3R) | EC50 (human dopamine D3R) | sucrose self-administration [1]
CCc1cccc(N2CCN(CC(O)CCNC(=O)c3cc4ccccc4[nH]3)CC2)c1Cl (racemic) [Compound 19, N-(4-(4-(2-chloro-3-ethylphenyl)piperazin-1-yl)-3-hydroxybutyl)-1H-indole-2-carboxamide] |  |  |  |  | no significant effects on sucrose self-administration
CCc1cccc(N2CCN(CCCCNC(=O)c3cc4ccccc4[nH]3)CC2)c1Cl [Compound 18, N-(4-(4-(2-Chloro-3-ethylphenyl)piperazin-1-yl)butyl)-1H-indole-2-carboxamide] | 61 | 2352 |  |  | 
CCc1cccc(N2CCN(CC(O)CCNC(=O)c3cc4ccccc4o3)CC2)c1Cl (stereo not drawn) [Compound 21, N-(4-(4-(2-Chloro-3-ethylphenyl)piperazin-1-yl)-3-hydroxybutyl)benzofuran-2-carboxamide] | 15 | 2417 | subnanomolar binding affinities |  | 
CCc1cccc(N2CCN(CC(O)CCNC(=O)c3cn4ccccc4n3)CC2)c1Cl (stereo not drawn) [Compound 23, N-(4-(4-(2-Chloro-3-ethylphenyl)piperazin-1-yl)-3-hydroxybutyl)imidazo[1,2-a]pyridine-2-carboxamide] | 58.5 | 2671 |  |  | 
CCc1cccc(N2CCN(CC(O)CCNC(=O)c3nc(C)c[nH]3)CC2)c1Cl (stereo not drawn) [Compound 27, N-(4-(4-(2-Chloro-3-ethylphenyl)piperazin-1-yl)-3-hydroxybutyl)-4-methyl-1H-imidazole-2-carboxamide] | 13.1 | 175 |  |  | 
CCc1cc(Cl)c(OC)c(N2CCN(CCCCNC(=O)c3cc4ccccc4[nH]3)CC2)c1 [Compound 28, N-(4-(4-(3-Chloro-5-ethyl-2-methoxyphenyl)piperazin-1-yl)butyl)-1H-indole-2-carboxamide] | 38 | 3065 |  | > 8.3 µM | 
CCc1cc(Cl)c(OC)c(N2CCN(CCCCNC(=O)c3cc4ccccc4o3)CC2)c1 [Compound 30, N-(4-(4-(3-Chloro-5-ethyl-2-methoxyphenyl)piperazin-1-yl)butyl)benzofuran-2-carboxamide] | 5.2 | 224 |  | > 6.6 µM | 
CCc1cc(Cl)c(OC)c(N2CCN(CC(O)CCNC(=O)c3cc4ccccc4o3)CC2)c1 (stereo not drawn) [Compound 31, N-(4-(4-(3-Chloro-5-ethyl-2-methoxyphenyl)piperazin-1-yl)-3-hydroxybutyl)benzofuran-2-carboxamide] | 3.3 | 146 |  |  | 
CCc1cccc(N2CCN(C/C=C/CNC(=O)c3nc(C)c[nH]3)CC2)c1Cl [Compound 35, (E)-N-(4-(4-(2-Chloro-3-ethylphenyl)piperazin-1-yl)but-2-en-1-yl)-4-methyl-1H-imidazole-2-carboxamide] | 31.2 | 393 |  |  | 
CCc1cccc(N2CCN(CCC(O)CNC(=O)c3cc4ccccc4[nH]3)CC2)c1Cl (stereo not drawn) [Compound 40, N-(4-(4-(2-Chloro-3-ethylphenyl)piperazin-1-yl)-2-hydroxybutyl)-1H-indole-2-carboxamide] | 44.7 | 1525 |  |  | 

— patent US12162861B2, “Dopamine D3 receptor selective antagonists/partial agonists; method of making; and use thereof” (THE UNITED STATES OF AMERICA, AS REPRESENTED BY THE …, priority 2016, dated 2024)
